This is an account of results in the NIST ThermoML archive (doi:10.1021/je1005517).

This data set can be described thus: activity coefficient (dimensionless); of the first substance listed, at infinite dilution; xn = mol fraction of the nth substance listed. As to conditions: Liquid, GC, x1 = 0.

Numbers after ± are expanded uncertainties.

With `C=CCCC` [1-pentene] + CCCCCCCCCCCCCCCCCCCCO, the activity coefficient is, setting by setting: (338.15 K, 101 kPa) 0.0813 ± 0.0049; (343.15 K, 101 kPa) 0.0742 ± 0.0045; (348.15 K, 101 kPa) 0.0664 ± 0.004; (353.15 K, 101 kPa) 0.06 ± 0.0036.

With `CCOC(C)=O` [ethyl acetate] + CCCCCCCCCCCCCCCCCCO, the activity coefficient runs as follows: (333.15 K, 101.3 kPa) 0.0445 ± 0.0027; (338.15 K, 101.3 kPa) 0.0408 ± 0.0024; (343.15 K, 101.3 kPa) 0.0384 ± 0.0023; (348.15 K, 101.3 kPa) 0.036 ± 0.0022; (353.15 K, 101.3 kPa) 0.0335 ± 0.002.

For `CCCCO` [butan-1-ol] + CCCCCCCCCCCCCCCCCCCCO, the activity coefficient (338.15 K, 101 kPa) came out at 0.431 ± 0.026; the activity coefficient (343.15 K, 101 kPa) was found to be 0.387 ± 0.023; the activity coefficient (348.15 K, 101 kPa) came to 0.352 ± 0.021; the activity coefficient (353.15 K, 101 kPa) stood at 0.316 ± 0.019.

On to `C1CCOC1` [tetrahydrofuran] + CCCCCCCCCCCCCCCCCCO, for which the activity coefficient reads like this: (333.15 K, 101 kPa) 0.0204 ± 0.0012; (338.15 K, 101 kPa) 0.0188 ± 0.0011; (343.15 K, 101 kPa) 0.0177 ± 0.0011; (348.15 K, 101 kPa) 0.0166 ± 0.001; (353.15 K, 101 kPa) 0.0156 ± 0.0009.

For `CCCO` [propan-1-ol] + CCCCCCCCCCCCCCCCCCO, the activity coefficient reads like this: (333.15 K, 101.3 kPa) 0.0722 ± 0.0043; (338.15 K, 101.3 kPa) 0.0625 ± 0.0038; (343.15 K, 101.3 kPa) 0.0597 ± 0.0036; (348.15 K, 101.3 kPa) 0.055 ± 0.003; (353.15 K, 101.3 kPa) 0.051 ± 0.003.

For the molecule `CCCCCC` [hexane] + CCCCCCCCCCCCCCCCCCCCO, the activity coefficient (338.15 K, 101 kPa) was 0.129 ± 0.0077; the activity coefficient (343.15 K, 101 kPa) was 0.124 ± 0.0074; the activity coefficient (348.15 K, 101 kPa) came out at 0.119 ± 0.0072; the activity coefficient (353.15 K, 101 kPa) is 0.115 ± 0.0069.

In the case of `CCCCC` [pentane] + CCCCCCCCCCCCCCCCCCO, the activity coefficient came out at 0.0292 ± 0.0018 (333.15 K, 101 kPa); 0.0272 ± 0.0016 (338.15 K, 101 kPa); 0.0259 ± 0.0016 (343.15 K, 101 kPa); 0.0243 ± 0.0015 (348.15 K, 101 kPa); 0.0231 ± 0.0014 (353.15 K, 101 kPa).

In the case of `CC(C)=O` [acetone] + CCCCCCCCCCCCCCCCCCCCO, the activity coefficient runs as follows: (338.15 K, 101 kPa) 0.0557 ± 0.0033; (343.15 K, 101 kPa) 0.0572 ± 0.0034; (348.15 K, 101 kPa) 0.0587 ± 0.0035; (353.15 K, 101 kPa) 0.0602 ± 0.0036.

On to `C=CCCCCC` [1-heptene] + CCCCCCCCCCCCCCCCCCCCO, for which the activity coefficient runs as follows: (338.15 K, 101 kPa) 0.124 ± 0.0074; (343.15 K, 101 kPa) 0.118 ± 0.0071; (348.15 K, 101 kPa) 0.113 ± 0.0068; (353.15 K, 101 kPa) 0.108 ± 0.0065.

On to `CCCCCCCC` [octane] + CCCCCCCCCCCCCCCCCCCCO, for which the activity coefficient runs as follows: (338.15 K, 101 kPa) 0.187 ± 0.011; (343.15 K, 101 kPa) 0.161 ± 0.0096; (348.15 K, 101 kPa) 0.138 ± 0.0083; (353.15 K, 101 kPa) 0.12 ± 0.0072.

Regarding `CC#N` [acetonitrile] + CCCCCCCCCCCCCCCCCCCCO, the activity coefficient by setting is: (338.15 K, 101 kPa) 0.309 ± 0.019; (343.15 K, 101 kPa) 0.265 ± 0.016; (348.15 K, 101 kPa) 0.229 ± 0.014; (353.15 K, 101 kPa) 0.197 ± 0.012.

For the molecule `CCCCCl` [1-chlorobutane] + CCCCCCCCCCCCCCCCCCCCO, the activity coefficient came out at 0.0991 ± 0.0059 (338.15 K, 101 kPa); 0.0954 ± 0.0057 (343.15 K, 101 kPa); 0.0919 ± 0.0055 (348.15 K, 101 kPa); 0.0886 ± 0.0053 (353.15 K, 101 kPa).

As for `C=CCCCCC` [1-heptene] + CCCCCCCCCCCCCCCCCCO, the activity coefficient is, setting by setting: (333.15 K, 101.3 kPa) 0.0431 ± 0.0026; (338.15 K, 101.3 kPa) 0.0417 ± 0.0025; (343.15 K, 101.3 kPa) 0.0407 ± 0.0024; (348.15 K, 101.3 kPa) 0.0397 ± 0.0024; (353.15 K, 101.3 kPa) 0.0388 ± 0.0023.

In the case of `CCOCC` [diethyl ether] + CCCCCCCCCCCCCCCCCCO, the activity coefficient reads like this: (333.15 K, 101 kPa) 0.0257 ± 0.0015; (338.15 K, 101 kPa) 0.0235 ± 0.0014; (343.15 K, 101 kPa) 0.0219 ± 0.0013; (348.15 K, 101 kPa) 0.0204 ± 0.0012; (353.15 K, 101 kPa) 0.019 ± 0.001.

Consider `CO` [methanol] + CCCCCCCCCCCCCCCCCCCCO, for which the activity coefficient stood at 0.122 ± 0.0073 (338.15 K, 101 kPa); 0.0967 ± 0.0058 (343.15 K, 101 kPa); 0.0737 ± 0.0044 (348.15 K, 101 kPa); 0.0574 ± 0.0034 (353.15 K, 101 kPa).

As for `CCCCC` [pentane] + CCCCCCCCCCCCCCCCCCCCO, the activity coefficient came out at 0.0954 ± 0.0057 (338.15 K, 101 kPa); 0.0801 ± 0.0048 (343.15 K, 101 kPa); 0.0668 ± 0.004 (348.15 K, 101 kPa); 0.0564 ± 0.0034 (353.15 K, 101 kPa).

For the molecule `CCCCl` [1-chloropropane] + CCCCCCCCCCCCCCCCCCO, the activity coefficient is 0.0331 ± 0.002 (333.15 K, 101.3 kPa); 0.0294 ± 0.0018 (338.15 K, 101.3 kPa); 0.0269 ± 0.0016 (343.15 K, 101.3 kPa); 0.0245 ± 0.0015 (348.15 K, 101.3 kPa); 0.0225 ± 0.0014 (353.15 K, 101.3 kPa).

Take `CCCCCC` [hexane] + CCCCCCCCCCCCCCCCCCO: the activity coefficient reads like this: (333.15 K, 101 kPa) 0.0551 ± 0.0033; (338.15 K, 101 kPa) 0.0468 ± 0.0028; (343.15 K, 101 kPa) 0.0411 ± 0.0025; (348.15 K, 101 kPa) 0.0359 ± 0.0022; (353.15 K, 101 kPa) 0.0315 ± 0.0019.
